# A melting point compilation (Tetko et al.; mined from patent text by program, amines drawn as free bases though some values may be those of a salt)
row,Structure (SMILES),melting point [°C]
1,NC(=O)N1C(=O)C(=C(OC(=O)c2cccnc2)c2cccs2)c2cc(F)c(Cl)cc21,201 to 202
2,NC(=O)c1ccccc1-c1cc([N+](=O)[O-])ccc1-c1ccc([N+](=O)[O-])cc1,242 to 244
3,Fc1cccc(OC2CN([C@H]3CC[C@@H](c4c[nH]c5ccc(F)cc54)CC3)C2)c1,119 to 125
4,CC1(C)OC(=O)Nc2ccc(-c3cc(F)cc(Cl)c3)cc21,193 to 194
5,Cc1cc(C(=O)O)c(C)c2c1SCCC2(C)C,166 to 167
6,CCCN1CCc2c(cccc2NC(C)=O)C1,123
7,COc1ccc(S(=O)(=O)Nc2cccnc2Nc2ccccc2F)cc1,148 to 150
8,CNC(=C[N+](=O)[O-])NCCc1nnc(NCCCOc2cccc(CN3CCCCC3)c2)n1C,110 to 112
9,CCOC(=O)COc1cccc(NC(=O)NC2N=C(c3ccccc3F)c3ccccc3N(CC(=O)N3CC4CCC(CC4)C3)C2=O)c1 (racemic),156 to 158
10,COc1cccc(CN2CC=C(/C=C/c3ccccc3)CC2)c1,75 to 77
11,COC1CSC2=C(SC1)C(OC(=O)N1CCN(C)CC1)N(c1ccc3ccc(C)nc3n1)C2=O (stereo not drawn),220
12,CCCCCc1cc2c(nc(O)n2CC2CCNCC2)c(N)n1,246 to 249
13,COc1ccc(CCNS(=O)(=O)Cc2ccc3[nH]cc(CCN(C)C)c3c2)cc1,67 to 70
14,CC(C#Cc1ccc(Oc2ccccc2)cc1)N(O)C(N)=O (stereo not drawn),141 to 142
15,CCCC(CCC)C(=O)OC1N=C(c2ccccc2F)c2cc(Cl)ccc2NC1=O (stereo not drawn),147 to 149
16,CCCC(O)C(C)C(=O)n1c(=O)oc2ccccc21 (stereo not drawn),123 to 124
17,Cc1ccc(S(=O)(=O)Oc2cc(C=O)cc(OS(=O)(=O)c3ccc(C)cc3)c2OS(=O)(=O)c2ccc(C)cc2)cc1,159
18,CCOC(=O)c1cnn(-c2ccc(-n3cc(OC)c(=O)c(-c4ccnn4-c4ccccc4)n3)c(F)c2)c1O,188 to 193
19,CC(=O)Nc1ccc(-c2nnn(-c3ccc(C(F)(F)F)cc3F)c2N)cc1,115 to 116
20,CCOC(=O)C1(C(=O)OCC)COC2(CC(C)(C)N(C(C)=O)C(C)(C)C2)OC1,75 to 77
21,N#CC(=C1CCCCCN1)c1ccccc1,108 to 113
22,O=C(Nc1ccccn1)c1c(O)ccc2cc(-c3cccc(O)c3)ccc12,140
23,COC(=O)c1cc([N+](=O)[O-])c(N)c(F)c1F,184
24,CCC(O)(CC)c1ccc(-c2cccc(OCc3ccc(CO)c(CO)c3)c2C)c(C)c1,81 to 82
25,C#Cc1cn(C)c2cc(-c3ccccc3Cl)c3c(c12)C(=O)NC3=O,125 to 129

row,Structure (SMILES),melting point [°C]
1,O=S(=O)(Cl)c1cccc2c(I)cccc12,113 to 114
2,Clc1ncccc1-c1nnsc1-c1cccnc1Cl,146 to 148
3,CC(=O)Nc1nc2ncn(C)c(=S)n2n1,> 300
4,CCN(CC)C(C)CN(c1c(C)cccc1C)S(C)(=O)=O (stereo not drawn),58 to 60
5,O=C(Nc1cccc2[nH]ccc12)c1ccccc1OCCN1CCCCC1,154
6,CC(C)(O)CNc1c([N+](=O)[O-])cnc2cc(Br)cnc12,189 to 190
7,CCNc1nc(-c2ccc(F)c3ccccc23)cc(C(C)C)n1,77 to 78
8,Cc1csc2c1cc(C(=O)c1ccccc1)n2CC(=O)O,197
9,Cc1cccc2c(C(CO)=C3SC(=O)NC3=O)cccc12,160 to 161
10,COC(=O)c1nc(-c2ccc(Cl)c(F)c2)c(F)c(N)c1SC,125 to 126
11,CC(=O)c1sc(-c2ccncc2)c(C)c1-c1ccncc1,117 to 118
12,C[C@H]([C@H](O)c1ccc(O)c(O)c1)N1CCC(O)(c2ccccc2)CC1 (relative stereo),167 to 168
13,N#Cc1[nH]n(C2CCCC2)c2nc(-c3ccncc3)nc(=O)c1-2,> 300
14,Oc1ccc2c(c1)COc1c-2cc2ccc(O)cc2c1-c1cccc(C(F)(F)F)c1,228 to 231
15,CCCc1nc2c(N)nc(C)c(C)c2n1CCCC(C)=NOC,144 to 146
16,C=CN1CC/C(=C\C)C1=O,59 to 61
17,NNC(=O)Cc1ccccc1S(N)(=O)=O,116 to 125
18,CN(C)CCN(C)c1ccc(Nc2cc(-c3cc(F)cc(N4CCc5c(sc6c5CCCC6)C4=O)c3CO)cn(C)c2=O)nc1,122 to 123
19,CN(C)C=C(C=C(C#N)C(=O)OC(C)(C)C)c1cccnc1,161 to 163
20,O=C(c1cccnc1)N1CCC(c2ccccc2Cl)=N1,115 to 116
21,CC(C)Cn1c(CCCCNC(=O)Nc2ccccc2)nc2c(N)nc3c(c21)CCCC3,197 to 199
22,c1ccc2c(c1)CSc1nnnn1-2,137
23,CCOC(=O)C1CCN(c2ncc(NS(=O)(=O)c3ccccc3Br)c(NCc3ccc4c(c3)OCO4)n2)CC1,160 to 161
24,O=C(NC/C=C/c1ccccc1)c1ccc(OC(F)(F)F)cc1,136
25,COCCOC1CCN(c2ccc(NC(=O)c3cnn(-c4ccc(Cl)cc4)c3C)cc2C#N)CC1,180 to 182

row,Structure (SMILES),melting point [°C]
1,N#Cc1cccc(CN2C(=O)C3(COc4cc5c(cc43)CCO5)c3ccccc32)c1 (stereo not drawn),187 to 193
2,Oc1c(CC2CCCCC2)ccc2ccccc12,53 to 56
3,FC(Cc1ccc(Cl)cc1)(Cn1cncn1)Cn1cncn1,161 to 163
4,COc1cc(NS(=O)(=O)c2cccs2)c2[nH]c(C3=NCCS3)cc2c1,188 to 189
5,CN1CCCCc2cc([N+](=O)[O-])ccc21,52 to 54
6,Cc1cnc(N2CCNCC2)c2ccoc12,112
7,CCCCCN1CCN(c2nc(C)c(C(=O)NCc3cccnc3)s2)C1=O,102 to 103
8,COc1ccc(C(=O)Nc2c(Cl)cncc2Cl)nc1OC1CCCC1,164 to 166
9,Cn1cnc2c(OC3SCC(O)C(O)C3O)cccc21 (stereo not drawn),180
10,C#CC1CC2(CC#CC)C(O)CCC2C2C=CC3=CC(=O)CCC3C12 (stereo not drawn),195 to 198
11,CCn1c(=O)c2c(ncn2CCCCC(C)=O)n(CC)c1=O,68 to 69
12,CCOC(=O)C(Br)C(=O)Nc1ccccc1 (racemic),90
13,CCNc1cccnc1N1CCN(C(=O)c2ccc(C(=O)OC)cn2)CC1,80 to 81
14,CC(C)(C)c1cnc(CSc2cnc(NC(=O)Cc3ccc(OCCCC(=O)Nc4ccccn4)cc3)s2)o1,126 to 129
15,COC(=O)c1cc(-c2c(OC)cccc2OC)n(-c2ccc(NS(=O)(=O)c3ccc(C)cc3)cc2C2CCCC2)n1,200 to 230
16,Cc1cc(C)c(-c2cc(O)c(SCc3ccccc3)c(=O)o2)c(C)c1,134 to 136
17,Cc1sc(-c2ccccc2)nc1CN(C)[C@H]1CC[C@H](c2ccc3[nH]c(=O)oc3c2)CC1,246 to 248
18,Cc1c(C(=O)N(C)Cc2ccc3c(Br)c(OCC#N)ccc3c2)oc2ccccc12,35 to 38
19,COC(=O)CCc1ccc(N2CCN(c3ccc(C(=N)NC(=O)OC)cc3)C2=O)cc1,> 260
20,CC(=O)OCC1OC(OC2C(COC(C)=O)OC(Oc3ccc(N)cc3)C(OC(C)=O)C2OC(C)=O)C(OC(C)=O)C(OC(C)=O)C1OC(C)=O (stereo not drawn),174 to 176
21,C=CCNC(=O)NS(=O)(=O)c1ccccc1OC(Cl)=CCl,187 to 188
22,CC(C)c1nn(-c2ccc(C(F)(F)F)cn2)cc1CCCOc1cccc(CC(=O)O)c1,82 to 83
23,CC1(C)OC(=S)Nc2ccc(-c3ccc(C#N)[nH]3)cc21,261 to 262
24,O=C1C=C(O)CC(c2cc(C3CCOC3)no2)C1 (stereo not drawn),142 to 144
25,CCSc1cc(C)nc(SCC)c1NC(=O)CSc1nc2cccc(C(=O)OC)c2o1,168 to 169

row,Structure (SMILES),melting point [°C]
1,COc1cccc(N(C)C(=O)c2ncc(-c3cccc(C)c3)s2)c1,85
2,Clc1ccc(Nc2nnc(Cl)c3sccc23)cc1,139 to 142
3,COc1cc(C=C(N)C(C)=O)ccc1OCC1CO1 (stereo not drawn),173 to 174
4,Cc1ccc(-c2ccc(S(=O)(=O)Nc3onc(C)c3Br)cc2)cc1,153 to 156
5,CCc1c(C)c(NC(=O)CC(C)(C)C)c(C)c2c1SCC2c1ccc(C(C)C)cc1 (stereo not drawn),172 to 173
6,O=S(=O)(Nc1onc2c1CCCC2)c1ccccc1,155 to 157
7,Oc1nc2ccc3nccnc3c2nc1O,> 300
8,NS(=O)(=O)c1nc2ccc(OC(=O)Cc3ccccc3)cc2s1,177 to 179
9,COCCOc1ccc(CCC(=O)NS(N)(=O)=O)c(Oc2ncc(C(F)(F)F)cc2Cl)c1,158 to 159
10,O=C(c1nc2ccc(O)cc2[nH]1)N1CCC(=Cc2ccccc2)CC1,148
11,COc1cc2c(cc1Nc1ncc(Cl)c(N[C@H]3[C@@H](C(N)=O)[C@@H]4C=C[C@H]3C4)n1)CCN(C[C@H](O)C(F)(F)F)CC2,120 to 126
12,CCCCCCCCCCCCCCCCCCOc1cc(OC(=O)C(c2ccccc2)c2ccccc2)cc(C(=O)O)c1,82 to 86
13,CC(C)n1nc(-c2c(-c3ccccc3)nc(N)[nH]c2=O)ccc1=O,291 to 295
14,Cc1cc(Cl)c(C(=O)c2ccccc2)c(Cl)c1,75.5 to 76.5
15,CCOC(=O)c1sc2cc(CO)ccc2c1Sc1cccc(OC)c1,110 to 112
16,CCn1nc(C)c2c(O)c(C(=O)O)cnc21,212 to 213
17,CC(=O)Nc1ccc(-n2nc(CCCCCC(=O)O)c3c2CCC3)cc1,149 to 150
18,O=C(Cc1ccccc1)c1ccc(OC=C(F)F)cc1,81 to 85
19,COc1cccc(Sc2ccnc(Nc3ccc(N4CCOCC4)cc3)n2)c1,159 to 161
20,CN(CCO)c1nccc(Oc2ccc(NC(=O)c3cc(F)cc(N4CCOCC4)c3)c3ccccc23)n1,100 to 102
21,CCCCCCCCCCCCCCCCCCOC(=O)c1ccc(Cn2c(=S)sc3ccccc32)cc1,105 to 107
22,CCCCCCCCCCS(=O)(=O)Nc1cc(C(=O)Nc2ccccc2)ccc1OC,160 to 161
23,Nc1ccc(C(=O)Nc2ccc(Cl)nc2)cc1F,193
